The test system of data set [1] is Mus musculus. Kind of data set: Dose normalized AUC (0 to 23 hrs) in NOD-scid IL-2Rgamma-null mouse model engrafted with Plasmodium falciparum 3D7 infected human erythrocytes at 5 mg/kg administered via oral gavage by LC-MS/MS method. The format is ADME, organism-based. The following applies: in vivo.
Data set [2] is described as follows: AUC (0 to 23 hrs) in NOD-scid IL-2Rgamma-null mouse model engrafted with Plasmodium falciparum 3D7 infected human erythrocytes at 50 mg/kg administered via oral gavage by LC-MS/MS method. It is filed as ADME, organism-based. Also noted: dose 50 mg/kg, time < 23 hr, route oral. The conditions noted are these: in vivo.
Data set [3] deals with Rattus norvegicus. The data set is described as follows: Dose normalized AUC (0 to infinity) in Sprague-Dawley rat at 20 mg/kg administered via oral gavage as bolus dose by LC-MS/MS method. The format is ADME, organism-based. The following applies: in vivo.
The subject of data set [4] is Mus musculus. Kind of data set: Dose normalized Cmax in NOD-scid IL-2Rgamma-null mouse model engrafted with Plasmodium falciparum 3D7 infected human erythrocytes at 5 mg/kg administered via oral gavage measured over 23 hrs post first dose by LC-MS/MS method. The format is ADME, organism-based. The following applies: in vivo.
Data set [5] in a line: Tmax in NOD-scid IL-2Rgamma-null mouse model engrafted with Plasmodium falciparum 3D7 infected human erythrocytes at 10 mg/kg administered via oral gavage measured over 23 hrs post first dose by LC-MS/MS method. It is filed as ADME, organism-based. The following applies: in vivo.
In data set [6] the test system is Mus musculus. Kind of data set: Dose normalized Cmax in NOD-scid IL-2Rgamma-null mouse model engrafted with Plasmodium falciparum 3D7 infected human erythrocytes at 50 mg/kg administered via oral gavage measured over 23 hrs post first dose by LC-MS/MS method. The format is ADME, organism-based. The conditions noted are these: in vivo.
Data set [7] in a line: Cmax in Sprague-Dawley rat at 20 mg/kg administered via oral gavage as bolus dose by LC-MS/MS method. The format is ADME, organism-based. The arrangement: dose 20 mg/kg, route oral. The following applies: in vivo.
The nature of data set [8]: Tmax in NOD-scid IL-2Rgamma-null mouse model engrafted with Plasmodium falciparum 3D7 infected human erythrocytes at 50 mg/kg administered via oral gavage measured over 23 hrs post first dose by LC-MS/MS method. The conditions noted are these: in vivo. The format is ADME, organism-based.
Data set [9] is described as follows: Cmax in BALB/c mouse at 10 mg/kg administered via oral gavage as bolus dose by LC-MS/MS method. The format is ADME, organism-based. Also noted: dose 10 mg/kg, route oral. The following applies: in vivo.
Data set [10] is described as follows: Cmax in NOD-scid IL-2Rgamma-null mouse model engrafted with Plasmodium falciparum 3D7 infected human erythrocytes at 50 mg/kg administered via oral gavage measured over 23 hrs post first dose by LC-MS/MS method. It is filed as ADME, organism-based. The arrangement: dose 50 mg/kg, route oral. The following applies: in vivo.
Data set [11] can be described thus: Cmax in NOD-scid IL-2Rgamma-null mouse model engrafted with Plasmodium falciparum 3D7 infected human erythrocytes at 10 mg/kg administered via oral gavage measured over 23 hrs post first dose by LC-MS/MS method. The format is ADME, organism-based. The arrangement: dose 10 mg/kg, route oral. The following applies: in vivo.
Data set [12] in a line: AUC (0 to 23 hrs) in NOD-scid IL-2Rgamma-null mouse model engrafted with Plasmodium falciparum 3D7 infected human erythrocytes at 25 mg/kg administered via oral gavage by LC-MS/MS method. The format is ADME, organism-based. The arrangement: time < 23 hr, dose 25 mg/kg, route oral. The conditions noted are these: in vivo.
Data set [13] can be described thus: Cmax in NOD-scid IL-2Rgamma-null mouse model engrafted with Plasmodium falciparum 3D7 infected human erythrocytes at 25 mg/kg administered via oral gavage measured over 23 hrs post first dose by LC-MS/MS method. It is filed as ADME, organism-based. The arrangement: dose 25 mg/kg, route oral. The conditions noted are these: in vivo.
For data set [14], the system named is Mus musculus. The data set is described as follows: Dose normalized Cmax in NOD-scid IL-2Rgamma-null mouse model engrafted with Plasmodium falciparum 3D7 infected human erythrocytes at 25 mg/kg administered via oral gavage measured over 23 hrs post first dose by LC-MS/MS method. The format is ADME, organism-based. The conditions noted are these: in vivo.
Data set [15] in a line: Tmax in NOD-scid IL-2Rgamma-null mouse model engrafted with Plasmodium falciparum 3D7 infected human erythrocytes at 5 mg/kg administered via oral gavage measured over 23 hrs post first dose by LC-MS/MS method. It is filed as ADME, organism-based. The conditions noted are these: in vivo.
Data set [16] can be described thus: Cmax in Sprague-Dawley rat at 5 mg/kg, iv administered as 2 mins of infusion by LC-MS/MS method. It is filed as ADME, organism-based. Also noted: dose 5 mg/kg, route intravenous. The conditions noted are these: in vivo.
Data set [17] has as its system Mus musculus. The data set is described as follows: Dose normalized AUC (0 to 23 hrs) in NOD-scid IL-2Rgamma-null mouse model engrafted with Plasmodium falciparum 3D7 infected human erythrocytes at 50 mg/kg administered via oral gavage by LC-MS/MS method. The following applies: in vivo. The format is ADME, organism-based.
Data set [18] in a line: Volume of distribution in Sprague-Dawley rat at 5 mg/kg, iv administered as 2 mins of infusion by LC-MS/MS method. It is filed as ADME, organism-based. The following applies: in vivo.
In data set [19] the test system is Mus musculus. Kind of data set: Dose normalized AUC (0 to infinity) in BALB/c mouse at 10 mg/kg administered via oral gavage as bolus dose by LC-MS/MS method. The conditions noted are these: in vivo. It is filed as ADME, organism-based.
The test system of data set [20] is Rattus norvegicus. The data set is described as follows: Dose normalized AUC (0 to infinity) in Sprague-Dawley rat at 5 mg/kg, iv administered as 2 mins of infusion by LC-MS/MS method. The following applies: in vivo. The format is ADME, organism-based.
Data set [21] can be described thus: Cmax in NOD-scid IL-2Rgamma-null mouse model engrafted with Plasmodium falciparum 3D7 infected human erythrocytes at 5 mg/kg administered via oral gavage measured over 23 hrs post first dose by LC-MS/MS method. It is filed as ADME, organism-based. The arrangement: dose 5 mg/kg, route oral. The following applies: in vivo.
The subject of data set [22] is Mus musculus. Kind of data set: Dose normalized AUC (0 to 23 hrs) in NOD-scid IL-2Rgamma-null mouse model engrafted with Plasmodium falciparum 3D7 infected human erythrocytes at 10 mg/kg administered via oral gavage by LC-MS/MS method. The format is ADME, organism-based. The conditions noted are these: in vivo.
The nature of data set [23]: Kinetic solubility of the compound in FaSSIF at pH 6.5 after 20 hrs by shake flask method. The format is physicochemical. The conditions noted are these: read-out: Kinetic_solubility.
For data set [24], the system named is Mus musculus. The data set is described as follows: Dose normalized Cmax in NOD-scid IL-2Rgamma-null mouse model engrafted with Plasmodium falciparum 3D7 infected human erythrocytes at 10 mg/kg administered via oral gavage measured over 23 hrs post first dose by LC-MS/MS method. It is filed as ADME, organism-based. The following applies: in vivo.
Data set [25] is described as follows: Kinetic solubility of the compound in phosphate buffered saline at pH 6.5 after 20 hrs by shake flask method. It is filed as physicochemical. The following applies: read-out: Kinetic_solubility.
Data set [26] is described as follows: Drug metabolism in iv or po dosed Sprague-Dawley rat plasma assessed as oxidation of pyridine ring by LC-MS/MS method. The conditions noted are these: in vivo. It is filed as ADME, organism-based.
The nature of data set [27]: Oral bioavailability in Sprague-Dawley rat at 20 mg/kg administered via gavage as bolus dose by LC-MS/MS method. It is filed as ADME, organism-based. The conditions noted are these: in vivo.
The nature of data set [28]: Drug metabolism in iv or po dosed Sprague-Dawley rat plasma assessed as oxidation of phenyl ring by LC-MS/MS method. The format is ADME, organism-based. The following applies: in vivo.
A short description of data set [29]: Kinetic solubility of the compound in HCl at pH 2 after 20 hrs by shake flask method. The format is physicochemical. The following applies: read-out: Kinetic_solubility.
The test system of data set [30] is Mus musculus. Kind of data set: Dose normalized AUC (0 to 23 hrs) in NOD-scid IL-2Rgamma-null mouse model engrafted with Plasmodium falciparum 3D7 infected human erythrocytes at 25 mg/kg via oral gavage by LC-MS/MS method. The format is ADME, organism-based. The following applies: in vivo.
Data set [31] can be described thus: AUC (0 to 23 hrs) in NOD-scid IL-2Rgamma-null mouse model engrafted with Plasmodium falciparum 3D7 infected human erythrocytes at 5 mg/kg administered via oral gavage by LC-MS/MS method. The format is ADME, organism-based. Also noted: dose 5 mg/kg, time < 23 hr, route oral. The following applies: in vivo.
The nature of data set [32]: Tmax in Sprague-Dawley rat at 20 mg/kg administered via oral gavage as bolus dose by LC-MS/MS method. The format is ADME, organism-based. The conditions noted are these: in vivo.
Data set [33] in a line: Tmax in BALB/c mouse at 10 mg/kg administered via oral gavage as bolus dose by LC-MS/MS method. It is filed as ADME, organism-based. The following applies: in vivo.
The nature of data set [34]: Tmax in NOD-scid IL-2Rgamma-null mouse model engrafted with Plasmodium falciparum 3D7 infected human erythrocytes at 25 mg/kg administered via oral gavage measured over 23 hrs post first dose by LC-MS/MS method. The following applies: in vivo. It is filed as ADME, organism-based.
Data set [35] is described as follows: AUC (0 to 23 hrs) in NOD-scid IL-2Rgamma-null mouse model engrafted with Plasmodium falciparum 3D7 infected human erythrocytes at 10 mg/kg administered via oral gavage by LC-MS/MS method. Also noted: dose 10 mg/kg, time < 23 hr, route oral. The format is ADME, organism-based. The conditions noted are these: in vivo.
The nature of data set [36]: Drug metabolism in iv or po dosed BALB/c mouse plasma assessed as oxidation of cyclopentane ring by LC-MS/MS method. It is filed as ADME, organism-based. The conditions noted are these: in vivo.
Data set [37] can be described thus: Drug metabolism in iv or po dosed BALB/c mouse plasma assessed as oxidation and dehydrogenation of cyclopentane ring by LC-MS/MS method. It is filed as ADME, organism-based. The following applies: in vivo.
Data set [38] in a line: Drug metabolism in iv or po dosed BALB/c mouse plasma assessed as dioxidation of cyclopentane ring by LC-MS/MS method. The conditions noted are these: in vivo. It is filed as ADME, organism-based.

In brackets after ≈: the same amount, converted by molar mass.

Regarding `Fc1ccc(Nc2cc3[nH]c(-c4ccc(F)c(C(F)(F)F)c4)nc3cn2)nc1`, the AUC/dose worked out at 1.302 µg·h/mL/mg/kg in the data set with Mus musculus [1]; 5923 µM·min in the data set with Rattus norvegicus [3]; 1.681 µg·h/mL/mg/kg with Mus musculus [17]; 2622 µM·min in the data set with Mus musculus [19]; 1692 µM·min in the data set with Rattus norvegicus [20]; 1.686 µg·h/mL/mg/kg in the data set on Mus musculus [22]. In the data set with Mus musculus [30], this compound returned an AUC/dose of 1.632 µg·h/mL/mg/kg. Further, the area under the curve AUC(0-t) (as a rule, the area under the concentration-time curve up to a stated or last time point) at 23 h turned out to be 84100 ng·h/mL in data set [2], 32600 ng·h/mL in data set [12], 6510 ng·h/mL in [31] and 16900 ng·h/mL in data set [35]. The Cmax/dose worked out at 0.115 µg/mL/mg/kg in the data set with Mus musculus [4], 0.097 µg/mL/mg/kg in the data set with Mus musculus [6], 0.155 µg/mL/mg/kg in the data set on Mus musculus [14] and 0.158 µg/mL/mg/kg in the data set with Mus musculus [24]. Besides, the Tmax (usually the time at which the peak concentration occurs) is 4 h in data set [5]; 2 to 4 h in data set [8]; 4 to 6 h in data set [15]; 12 h in data set [32]; 1.7 h in [33]; 4 h in [34]. For the same compound, the Cmax – broadly, the peak of the concentration-time curve – in data set [7] was 4.7 µM; in data set [9] it was 4 µM; in data set [10], 4860 ng/mL; in [11] it was 1580 ng/mL; in data set [13] it was 3090 ng/mL; in data set [16], 5.4 µM. Moreover, the Cmax in [21] came out at 573 ng/mL. Also, the Vd (usually a proportionality between amount in the body and measured concentration, not a real space) in data set [18] stood at 2.3 L/kg. The figures for the solubility kinetic at 20 h in data set [23], in data set [25] and in data set [29] were 50 to 100 µM (≈ 19.6 to 39.1 µg/mL), under 5 µM and 13 µM (≈ 5.09 µg/mL), respectively. The Drug metabolism entry in data set [26] is “Metabolite_Detected”; in data set [28], “Metabolite_Notdetected”. Further, in data set [27], the bioavailability (in general, dose-corrected exposure relative to a reference, in per cent) worked out at 88%.

For `FC(F)(F)c1ccc(Nc2cc3[nH]c(C4CCCC4)nc3cn2)nc1`, the Drug metabolism entry in data set [36], in data set [37] and in [38] was “Metabolite_Detected” throughout. The solubility kinetic at 20 h is 85 µM (≈ 29.5 µg/mL) in data set [23], 145 µM (≈ 50.4 µg/mL) in data set [25] and 132 µM (≈ 45.8 µg/mL) in data set [29].

Source of the values: ChEMBL document CHEMBL4184318, “Identification of Fast-Acting 2,6-Disubstituted Imidazopyridines That Are Efficacious in the in Vivo Humanized Plasmodium falciparum NODscidIL2Rγ null Mouse Model of Malaria” (J Med Chem, 2018).
